Test results: patent US20250064888A1, “COMPOSITIONS AND METHODS FOR TREATING CYTOKINE STORM” (SHENZHEN HIGHTIDE BIOPHARMACEUTICAL LTD., priority 2022, published 2025)
Marks after values point to notes of the source that are not given here.

Test system: LPS-induced mice model
Assay: Survival rate in LPS-induced mice model
Assay type: in vivo, C57BL/6J mice
Conditions: G6 positive control, 4 mg/kg/day ig; for survival rate: first dose 1 h before LPS
Experimental: Male SPF C57BL/6J mice (6-8 weeks old with body weight about 18-20 g) used in the study were purchased from Shanghai SLAC Laboratory Animal Co., Ltd. All the care and use of animals followed 3R principles and relevant regulations.
One hundred (100) male C57BL/6J mice (18-20 g) were used for the study. After acclimated for 7 days, the inflammation mice model, which is characterized by a severe acute systemic inflammation response was established by a single tail vein injection of LPS (30 mg/kg).
The model animals were randomly divided into 7 groups: vehicle control group (G0), test group 1 (G1)˜test group 5 (G5) and positive control group (G6), of which there were 15 mice/group in G0˜G5 and 10 mice/group in G6. Day 1 was defined as the day on which tail vein injection of LPS (30 mg/kg), treatment start from the same day of the model establishment (Day 1) through Day 5 for consecutive 5 days (120 h after LPS induction). Except for the first dose on Day1 which were set at 5 min before LPS injection, 5 min after LPS injection, 1 hour before LPS injection and 1 hour after LPS injection respectively (Detailed information see the administration schedule in table 1), each groups have the same time schedules for administration (8 h after LPS injection for the second dose and bid with once in the morning, once in the evening for the following days). Vehicle and API were administered by back subcutaneous injection, DEX was administered by gavage.
Graphpad 8.0 software was used for data analysis. Log-rank (Mantel-Cox) test was used for statistical analysis of the survival rate between each treatment group and vehicle control group.

## C[C@@H]1C[C@H]2[C@@H]3CCC4=CC(=O)C=C[C@]4(C)[C@@]3(F)[C@@H](O)C[C@]2(C)[C@@]1(O)C(=O)CO [DEX, Dexamethasone]
8 h
  survival rate: 100.0%
16 h
  survival rate: 100.0%
24 h
  survival rate: 100.0%
48 h
  survival rate: 90.0%
72 h
  survival rate: 90.0%
120 h
  survival rate: 90.0%**
10 mice/group
  mice died until 72 h after LPS injection: 1 mouse
